# Source: patent US4663438A, “Novel nucleic acid-containing glycoprotein” (Kureha Kagaku Kogyo Kabushiki Kaisha, priority 1981, dated 1987)
# Test system: sarcoma-180 cells
# Assay: Inhibition by monosaccharide of agglutination of sarcoma-180 cells due to the present substance
# Assay type: cell-based, mouse
# Conditions: present substance 3 mg with monosaccharide 1.5 mg, 30 min, 37° C.; blank test 18
# Description: (ii) Test on the inhibition by monosaccharide of agglutination of sarcoma-180 cells due to the present substance
# The same specimen of sarcoma-180 cells suspending in 0.5 ml of Hanks' solution at a rate of 1×10^6 cells/ml as in Test (i) and each 0.5 ml of the physiological saline solution containing 3 mg of the present substance and 1.5 mg of the respective monosaccharides set forth below, which was incubated for 30 min. at 37° C., then discarding the supernatant medium and washing the residue with Hanks' solution, the remaining residue was examined under a microscope to count the number of agglutinated lumps of the cells.
row,Structure (SMILES),Number of agglutinated lumps
1,O=C[C@H](O)[C@@H](O)[C@@H](O)[C@H](O)CO [D-galactose],118
2,C[C@H](O)[C@@H](O)[C@@H](O)[C@H](O)C=O [L-fucose],27
3,C[C@H](O)[C@H](O)[C@@H](O)[C@@H](O)C=O [L-rhamnose],25
4,CC(=O)N[C@@H]1[C@@H](O)[C@H](O)[C@@H](CO)O[C@H]1O [N--acetylglucosamine],85
5,CO[C@H]1O[C@H](CO)[C@@H](O)[C@H](O)[C@H]1O [methyl α-glucoside],115
6,COC1OC(CO)C(O)C(O)C1O (stereo not drawn) [methyl α-mannoside],35
